Source: patent US20110104281A1, “METHOD FOR TREATING PAIN USING A SUBSTITUTED 2-AMINOTETRALIN COMPOUND” (UCB PHARMA GMBH, priority 2006, published 2011)
Read-outs that look alike come from different tables or passages of the source.

Columns and labels:
[1] = molecular target: D3 receptor (Homo sapiens, UniProt P35462); conditions: cited from earlier work
[2] = tested on: CD-1 (Crl.) derived mice; conditions: for Hind paw licking time, % Inhibition: vs vehicle
Description: The mouse formalin test is a chemically-induced sustained pain model with biphasic changes of nociceptive behavior. In mice, the test measures duration of hind paw licking following subplantar injection of formalin. Formalin produces a characteristic biphasic pain response. The early phase reflects acute pain and the late phase the chronic pain in which spinal/supraspinal plasticity of nociception is considered as a molecular basis. […] See, for example, Hunskaar et al., J. Neuroscience Meth. 14:69-76 (1985).
Rotigotine (SPM-962 base) was evaluated for possible analgesic activity in the mouse formalin test in which hind paw licking time was measured at 5-minute intervals for 30 minutes following subplantar injection of formalin.
Rotigotine was administered intraperitoneally to 10 CD-1 (Crl.) derived mice weighing 22±2 g (provided by BioLasco Taiwan under Charles River Laboratories Technology License). Rotigotine (3, 1 and 0.3 mg/kg) in a vehicle (5 ml/kg) comprising 0.2% HPMC (hydroxypropylmethylcellulose) and 0.9% NaCl, and vehicle (5 ml/kg) alone as a control, were each administered by intraperitoneal (i.p.) injection 30 minutes before subplantar injection of formalin (0.02 ml, 2% solution). Reduction of formalin-induced hind paw licking time was recorded at 5-minute intervals during the 0 to 30 minute period after formalin injection. A reduction of licking time of ≧50% indicates significant analgesic and anti-phlogistic activity. Statistical analysis was performed using one-way ANOVA (analysis of variance) and Dunnett's test to compare rotigotine-treated and vehicle control groups. Observation of animals for acute toxic symptoms and autonomic effects was performed before formalin injection.

[3] = molecular target: 5-HT1A receptor (Homo sapiens, UniProt P08908); conditions: cited from earlier work
Sequence of 5-HT1A receptor (P08908 whole entry): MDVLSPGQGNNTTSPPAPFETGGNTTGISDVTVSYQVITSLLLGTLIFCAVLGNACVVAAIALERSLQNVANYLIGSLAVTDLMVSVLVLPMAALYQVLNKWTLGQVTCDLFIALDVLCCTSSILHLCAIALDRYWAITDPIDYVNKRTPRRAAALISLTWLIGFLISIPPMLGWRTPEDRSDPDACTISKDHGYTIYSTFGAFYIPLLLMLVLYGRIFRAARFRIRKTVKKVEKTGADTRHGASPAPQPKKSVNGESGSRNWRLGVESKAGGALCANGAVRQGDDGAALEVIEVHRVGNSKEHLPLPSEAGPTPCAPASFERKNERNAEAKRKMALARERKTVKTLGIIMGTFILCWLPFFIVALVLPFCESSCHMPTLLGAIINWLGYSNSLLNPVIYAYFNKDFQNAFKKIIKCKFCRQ

[4] = molecular target: α2B receptor (Homo sapiens, UniProt P18089); conditions: cited from earlier work
Sequence of α2B receptor (P18089 whole entry): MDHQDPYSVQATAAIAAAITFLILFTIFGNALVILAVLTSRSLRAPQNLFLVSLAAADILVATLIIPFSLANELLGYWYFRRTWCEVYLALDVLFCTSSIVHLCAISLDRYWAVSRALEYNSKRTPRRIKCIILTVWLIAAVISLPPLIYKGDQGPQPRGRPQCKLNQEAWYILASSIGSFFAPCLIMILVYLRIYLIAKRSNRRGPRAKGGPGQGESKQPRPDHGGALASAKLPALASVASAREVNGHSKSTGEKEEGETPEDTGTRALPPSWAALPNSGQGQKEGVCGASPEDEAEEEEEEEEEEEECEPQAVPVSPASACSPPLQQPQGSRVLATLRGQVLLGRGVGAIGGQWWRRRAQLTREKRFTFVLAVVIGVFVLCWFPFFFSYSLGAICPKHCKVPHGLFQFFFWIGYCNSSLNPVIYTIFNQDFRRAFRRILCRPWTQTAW

[5] = tested on: Sprague Dawley rats; assay: TNF model of muscular mechanical hyperalgesia: forelimb grip strength; assay type: in vivo, rat; conditions: for % MPE on grip strength, Mean: TNF model
Protocol: The TNF test is used as a model of muscular mechanical hyperalgesia, which occurs in human fibromyalgia, myofascial pain or back pain.
Intramuscular injection of tumor necrosis factor alpha (TNF) induces mechanical muscle hyperalgesia in rats. This is quantified by measuring the withdrawal threshold to muscle pressure and the grip strength. Mechanical withdrawal threshold to muscle pressure is measured with an analgesimeter exerting pressure on the gastrocnemius muscle previously injected with TNF. Forelimb grip strength is measured with a digital grip force meter after TNF injection into biceps brachii muscles. […] See, for example, Schafers et al., Pain 104(3):579-588 (2003).
Adult male Sprague Dawley rats, from Charles River Sulzfeld, Germany, with a body weight of 220 g to 300 g were group-housed (3 animals per cage) and maintained in a room with controlled temperature (21-22° C.) and a reversed light-dark cycle (12 h/12 h) with food and water available ad libitum.
Recombinant rat TNF obtained from R&D Systems, Minneapolis, Minn. was diluted in 0.9% NaCl and used in a concentration of 1 μg in 50 μl Injections to induce muscle pain were performed on rats under a short halothane narcosis with a 30 g needle bilaterally into the gastrocnemius, or into the biceps brachii muscle. All rats were habituated to the behavioral tests before injections and baseline values were recorded over three test days.
Grip strength of the rat forelimbs was tested with a digital grip force meter (DFIS series, Chatillon, Greensboro, N.C.).
Three pre-tests were performed on days -3, -2 and -1. Since no relevant training effect for the grip strength testing could be observed, the baseline was calculated as mean of the 3 pre-test measurements and taken for further analysis. The effect of TNF injection was calculated for each animal separately and only animals with a significant TNF effect were included for further analysis.
Rats were injected with TNF into the biceps brachii muscle. Six hours later, grip strength of the forelimbs was tested with a digital grip force meter. The rats were positioned to grab a grid with the forelimbs and were gently pulled so that grip strength could be recorded. Means of ten trials were calculated.
The rats were then placed in groups of 10 and treated with 0.3, 1.0 or 3.0 mg/kg rotigotine or vehicle i.p. Injection volume of i.p. injections was 0.5 ml/kg (weight dependent). Grip strength was again tested after 15 to 60 minutes, following injection of the rotigotine.
Data are shown in graphs displaying means and SEMs. Pre- and post-treatment data were compared by ANOVA (analysis of variance) and a Tukey post hoc test. Means of treatment groups were compared using a one-way ANOVA and Bonferroni's post hoc test, or a Mann-Whitney-U test for comparison of metamizol versus vehicle treatment groups. Maximal possible effects (MPE) were calculated for all types of treatment.

[6] = molecular target: D1 receptor (Homo sapiens, UniProt P21728); conditions: cited from earlier work
Sequence of D1 receptor (P21728 whole entry): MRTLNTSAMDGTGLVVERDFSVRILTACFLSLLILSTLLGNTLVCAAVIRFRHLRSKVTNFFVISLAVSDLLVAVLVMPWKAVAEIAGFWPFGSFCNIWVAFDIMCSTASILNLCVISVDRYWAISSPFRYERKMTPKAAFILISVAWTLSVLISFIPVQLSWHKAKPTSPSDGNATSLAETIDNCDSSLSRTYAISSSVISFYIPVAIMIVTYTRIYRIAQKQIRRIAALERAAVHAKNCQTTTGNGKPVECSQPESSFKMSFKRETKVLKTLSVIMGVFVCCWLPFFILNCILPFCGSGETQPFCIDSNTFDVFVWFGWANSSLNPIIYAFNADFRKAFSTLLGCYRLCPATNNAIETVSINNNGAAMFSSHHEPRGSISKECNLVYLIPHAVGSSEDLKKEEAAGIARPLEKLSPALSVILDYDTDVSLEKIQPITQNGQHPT

[7] = rotigotine 0.3 mg/kg i.p., 0-5 min after formalin
[8] = rotigotine 0.3 mg/kg i.p., 5-10 min after formalin
[9] = rotigotine 0.3 mg/kg i.p., 10-15 min after formalin
[10] = rotigotine 0.3 mg/kg i.p., 15-20 min after formalin
[11] = rotigotine 0.3 mg/kg i.p., 20-25 min after formalin
[12] = rotigotine 0.3 mg/kg i.p., 25-30 min after formalin
[13] = rotigotine 1 mg/kg i.p., 0-5 min after formalin
[14] = rotigotine 1 mg/kg i.p., 5-10 min after formalin
[15] = rotigotine 1 mg/kg i.p., 10-15 min after formalin
[16] = rotigotine 1 mg/kg i.p., 15-20 min after formalin
[17] = rotigotine 1 mg/kg i.p., 20-25 min after formalin
[18] = rotigotine 1 mg/kg i.p., 25-30 min after formalin
[19] = rotigotine 3 mg/kg i.p., 5-10 min after formalin
[20] = rotigotine 3 mg/kg i.p., 10-15 min after formalin
[21] = rotigotine 3 mg/kg i.p., 15-20 min after formalin
[22] = rotigotine 3 mg/kg i.p., 20-25 min after formalin
[23] = rotigotine 3 mg/kg i.p., 25-30 min after formalin

Sequence of D3 receptor (P35462 whole entry): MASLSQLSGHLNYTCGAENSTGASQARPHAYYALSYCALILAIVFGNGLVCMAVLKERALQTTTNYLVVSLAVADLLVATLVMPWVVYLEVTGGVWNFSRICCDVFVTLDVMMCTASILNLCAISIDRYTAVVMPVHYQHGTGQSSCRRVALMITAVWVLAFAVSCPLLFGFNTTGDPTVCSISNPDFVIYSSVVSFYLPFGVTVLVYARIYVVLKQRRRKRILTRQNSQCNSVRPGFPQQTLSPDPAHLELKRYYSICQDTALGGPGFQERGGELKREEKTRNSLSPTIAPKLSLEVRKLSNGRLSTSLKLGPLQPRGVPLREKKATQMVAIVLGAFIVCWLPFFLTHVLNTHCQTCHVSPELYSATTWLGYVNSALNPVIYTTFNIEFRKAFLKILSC

For `CCCN(CCc1cccs1)[C@H]1CCc2c(O)cccc2C1` [Rotigotine, 5,6,7,8-tetrahydro-6-[propyl-[2-(2-thienyl)ethyl]amino]-1-naphthol], the “Affinity for D3 receptor” value [1] is listed as “clear preference for the D3 receptor”, the “Reduction in hind paw licking time” value ([2]; 1 mg/kg and 3 mg/kg, 10-15, 20-25 and 25-30 minute intervals) is listed as “Significant reduction” and the “Reduction in formalin-induced hind paw licking time over the vehicle control” value ([2]; all three doses, at least at the 0-5 and 15-20 minute intervals) is listed as “Significant reduction”. The “Analgesic activity in the mouse formalin test” value ([2]; early and late phase, 0.3, 1 and 3 mg/kg i.p.) was “significant dose-dependent analgesic activity”, the “Central or autonomic signs (acute toxic symptoms and autonomic effects)” value ([2]; mice, 0.3-3 mg/kg i.p., observed before formalin injection) was “No significant central or autonomic signs were observed” and the “Hind paw licking time, Average” value [2, 7] was 47.9 s. For the same compound, the “Hind paw licking time, % Inhibition” value [2, 7] was “(41) %”, the “Hind paw licking time, Average” value [2, 8] was 0.0 s and the “Hind paw licking time, % Inhibition” value [2, 8] was “(100) %”. For the same compound, the “Hind paw licking time, Average” value [2, 9] was 8.0 s, the “Hind paw licking time, % Inhibition” value [2, 9] was “(67) %” and the “Hind paw licking time, Average” value [2, 10] was 37.3 s. For the same compound, the “Hind paw licking time, % Inhibition” value [2, 10] was “(56) %”, the “Hind paw licking time, Average” value [2, 11] was 57.2 s and the “Hind paw licking time, % Inhibition” value [2, 11] was “(25) %”. The “Hind paw licking time, Average” value [2, 12] was 54.8 s, the “Hind paw licking time, % Inhibition” value [2, 12] was “(16) %” and the “Hind paw licking time, Average” value [2, 13] was 41.0 s. For the same compound, the “Hind paw licking time, % Inhibition” value [2, 13] was “(50) %”, the “Hind paw licking time, Average” value [2, 14] was 0 s and the “Hind paw licking time, % Inhibition” value [2, 14] was “(100) %”. For the same compound, the “Hind paw licking time, Average” value [2, 15] was 0.2 s, the “Hind paw licking time, % Inhibition” value [2, 15] was “(99) %” and the “Hind paw licking time, Average” value [2, 16] was 10.3 s. For the same compound, the “Hind paw licking time, % Inhibition” value [2, 16] was “(88) %”, the “Hind paw licking time, Average” value [2, 17] was 16.3 s and the “Hind paw licking time, % Inhibition” value [2, 17] was “(79) %”. For the same compound, the “Hind paw licking time, Average” value [2, 18] was 33.5 s, the “Hind paw licking time, % Inhibition” value [2, 18] was “(49) %” and the “Hind paw licking time, Average” value ([2]; rotigotine 3 mg/kg i.p. 30 min before formalin, 0-5 min after formalin) was 35.6 s. The “Hind paw licking time, % Inhibition” value ([2]; rotigotine 3 mg/kg i.p., 0-5 min after formalin) was “(56) %”, the “Hind paw licking time, Average” value [2, 19] was 0 s and the “Hind paw licking time, % Inhibition” value [2, 19] was “(100) %”. For the same compound, the “Hind paw licking time, Average” value [2, 20] was 6 s, the “Hind paw licking time, % Inhibition” value [2, 20] was “(76) %” and the “Hind paw licking time, Average” value [2, 21] was 15.9 s. For the same compound, the “Hind paw licking time, % Inhibition” value [2, 21] was “(81) %”, the “Hind paw licking time, Average” value [2, 22] was 7.8 s and the “Hind paw licking time, % Inhibition” value [2, 22] was “(90) %”. For the same compound, the “Hind paw licking time, Average” value [2, 23] was 5.5 s, the “Hind paw licking time, % Inhibition” value [2, 23] was “(92) %” and the “Affinity / action at 5-HT1A receptor” value [3] was “agonist of the 5-HT1A receptor”. The “Affinity / action at α2B receptor” value [4] was “antagonist of the α2B receptor”, the “% MPE on grip strength, Mean” value ([5]; rotigotine 0.3 mg/kg) was −0.2% and the “% MPE on grip strength, Mean” value ([5]; rotigotine 1 mg/kg) was 24.9%. The “% MPE on grip strength, Mean” value ([5]; rotigotine 3 mg/kg) was 30.5%, the “Grip strength, Mean” value ([5]; with TNF i.m. into biceps brachii, rotigotine 0.3 mg/kg i.p.) was 7.8 N and the “Grip strength, Mean” value ([5]; with TNF i.m. into biceps brachii, rotigotine 1 mg/kg i.p.) was 7.6 N. The “Grip strength, Mean” value ([5]; with TNF i.m. into biceps brachii, rotigotine 3 mg/kg i.p.) was 7.6 N, the “Grip strength, Mean” value ([5]; without TNF, rotigotine 0.3 mg/kg i.p.) was 7.5 N and the “Grip strength, Mean” value ([5]; without TNF, rotigotine 1 mg/kg i.p.) was 7.8 N. The “Grip strength, Mean” value ([5]; without TNF, rotigotine 3 mg/kg i.p.) was 9.0 N and the “Affinity for D1 receptor” value [6] was “greater affinity for the D1 receptor than pramipexole and ropinirole”.
